Reference: patent publication US20050118675A1, “Heptahelix receptor and its use as leukotriene B4 receptor” (Owman Investment Ltd., priority 1997, published 2005)
“Also recorded” adds a separate entry of the source.

How the values were obtained:
[1] = tested on: sham-transfected control cells; experiment: Intracellular calcium (Fura-2) in sham-transfected CHO control cells; type: cell-based, Chinese hamster; conditions: any dose level, shown for 1000 nM
Protocol: (§1) Intact plasmid DNA (10-25 μg) of the cDNA clone, Lyme21-9 (1), was transfected using the calcium phosphate precipitation method. Chinese hamster ovary cells (CHO-K1) were used to establish stable expression of the corresponding receptor, CMKRL1. The pCDneo vector was co-transfected to allow for selection with G-418)Geneticin, 500 μg/ml). Single resistant colonies were isolated to obtain homogenous cell lines, and appropriate expression of the corresponding mRNA were verified by Northern blot hybridization with cDNA probes. SV40 transformed African green monkey kidney cells (COS-7) were used for transient expression. […]
Transfected cells were seeded into 96-well plates (Corning-Costar) by dissociating confluent cultures using PBS containing 2 mM EDTA, diluting the resulting suspension 20×, and adding 50 μl per well. […] After 3 washes in extracellular medium buffer (135 mM NaCl, 4.6 mM KCl, 1.2 MM MgCl2, 1.5 mM CaCl2, 11 mM glucose, 11 mM Hepes, pH 7.4), the plates were mounted on the stage of a Nikon inverted fluorescence microscope attached to an SIT-camera and an image analysis system (Photon Technology International). […]
Agonists were added in 50 μl of extracellular medium buffer and mixed thoroughly with the original contents of the well. Fluorescence images were obtained by alternate excitation at 340 and 380 nm, and the emitted light was measured at 510 nm. […]

[2] = target: T1, CMKRL1 (Homo sapiens, UniProt Q15722); experiment: Intracellular calcium (Fura-2) in CHO cells stably expressing CMKRL1; type: cell-based; conditions: 1000 nM LTB4
T1 construct: A full-length cDNA (Lyme21-9) encoding a novel putative seven-transmembrane (7TM) domain receptor, named CMKRL1; expressed in transfected cells
Protocol: as §1, with “expression. These cells were harvested after 48 hrs for preparation and isolation of membranes. Sham-transfected cells were used as controls throughout.” for “expression.”
Agonists were added in 50 μl of extracellular medium buffer and mixed thoroughly with the original contents of the well. Fluorescence images were obtained by alternate excitation at 340 and 380 nm, and the emitted light was measured at 510 nm. The software configuration allowed for storage of fluorescence information from groups of cells, which could then be analyzed separately. Intracellular calcium concentrations were calibrated using the method described by William and Fay (5) and calculated from the aforementioned radiometric images using the mathematical relationship described by Grynkiewicz et al. (6). […]

[3] = tested on: sham-transfected COS-7 cells; experiment: [3H]LTB4 binding to membranes from sham-transfected COS-7 cells; parameters: species or system African green monkey
Protocol: (§2) Intact plasmid DNA (10-25 μg) of the cDNA clone, Lyme21-9 (1), was transfected using the calcium phosphate precipitation method. Chinese hamster ovary cells (CHO-K1) were used to establish stable expression of the corresponding receptor, CMKRL1. The pCDneo vector was co-transfected to allow for selection with G-418)Geneticin, 500 μg/ml). Single resistant colonies were isolated to obtain homogenous cell lines, and appropriate expression of the corresponding mRNA were verified by Northern blot hybridization with cDNA probes. SV40 transformed African green monkey kidney cells (COS-7) were used for transient expression. These cells were harvested after 48 hrs for preparation and isolation of membranes. Sham-transfected cells were used as controls throughout.
The transiently transfected COS-7 cells were washed with PBS, which was replaced with 50 mM TRIS/HCl buffer (pH 7.4) containing 1 mM EGTA and 5 mM MgCl2, and scraped off. After homogenization for 20 sec in a Polytron homogenizer (Brinkmann, setting 5.5) the material was centrifuged at 20,000 rpm for 30 min at 4° C., followed by washing through homogenization in the TRIS binding buffer and subsequent recentrifugation, which was repeated twice. The pellet was finally resuspended by homogenization and stored in liquid nitrogen until used. […]

[4] = target: T1, CMKRL1; experiment: [3H]LTB4 saturation binding to membranes from COS-7 cells transiently transfected with Lyme21-9 cDNA; conditions: for Bmax: Scatchard analysis, COS-7 membranes, 4° C.; for binding sites identified: saturation binding, linear Scatchard plot
Protocol: as §2
The transiently transfected COS-7 cells were washed with PBS, which was replaced with 50 mM TRIS/HCl buffer (pH 7.4) containing 1 mM EGTA and 5 mM MgCl2, and scraped off. After homogenization for 20 sec in a Polytron homogenizer (Brinkmann, setting 5.5) the material was centrifuged at 20,000 rpm for 30 min at 4° C., followed by washing through homogenization in the TRIS binding buffer and subsequent recentrifugation, which was repeated twice. The pellet was finally resuspended by homogenization and stored in liquid nitrogen until used. For the binding studies, membrane material corresponding to 30 μg protein ([…]) was blended with ice-cold binding buffer (0.02 M Hepes buffer containing 10 mM CaCl2 and MgCl2) to a final volume of 70 μl and added to wells in a 96-well polypropylene plate. […] Each data point is the result of the mean of triplicate wells from three separate experiments, which have in turn been averaged.

T1 sequence (Q15722 whole entry): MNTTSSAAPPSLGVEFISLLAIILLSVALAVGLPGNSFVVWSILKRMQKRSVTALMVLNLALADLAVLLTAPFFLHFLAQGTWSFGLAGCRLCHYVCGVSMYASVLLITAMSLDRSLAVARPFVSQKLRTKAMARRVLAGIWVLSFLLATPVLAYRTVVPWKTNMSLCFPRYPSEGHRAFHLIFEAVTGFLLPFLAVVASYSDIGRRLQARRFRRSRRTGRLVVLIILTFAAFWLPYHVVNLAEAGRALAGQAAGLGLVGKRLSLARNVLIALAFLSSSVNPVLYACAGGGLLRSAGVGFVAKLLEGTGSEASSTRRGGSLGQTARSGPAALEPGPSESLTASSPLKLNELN

**Q.** With `CCCCC/C=C\C[C@@H](O)/C=C/C=C/C=C\[C@@H](O)CCCC(=O)O` [LTB4, leukotriene B4] as the compound, how does the “effect on intracellular calcium in sham-transfected control cells” value [1] read?
**A.** completely without effect; also recorded: No response; also recorded: No binding or activation

**Q.** And the “increase in intracellular calcium in calcium-free medium” value [2]?
**A.** no longer included any significant increase; also recorded: No response

**Q.** What about the specific binding [3] of the same compound?
**A.** No binding

**Q.** How did the specific binding [3] turn out when `CCCCC/C=C\C[C@@H](O)/C=C/C=C\C=C\[C@@H](O)CCCC(=O)O` [[^3H]LTB4] was run?
**A.** no specific binding

**Q.** And the Bmax [4]?
**A.** 17.0 ± 2.0 pmoles/mg protein

**Q.** What about the Bmax ([4]; listed as tritiated LTB4) of the same compound?
**A.** 17.0 pmoles/mg protein

**Q.** What about the “Non-specific binding as share of the total binding” value ([4]; binding of tritiated ligand in the presence of 1 μM non-labelled ligand) of the same compound?
**A.** less than 15%

**Q.** And the “binding sites identified” value [4]?
**A.** single class of high-affinity binding sites

**Q.** What about the “binding sites identified” value ([4]; listed as tritiated LTB4) of the same compound?
**A.** binds with high affinity to a single receptor population
